According to patent US11267845B2, “Inhibitors of CD73-mediated immunosuppression” (ARCUS BIOSCIENCES, INC., priority 2016, dated 2022):

Each molecule was assayed against T1, CD73 (Homo sapiens, UniProt P21589) (assay: CD73 inhibition (Potency: CD73 IC50)).
T1 sequence (P21589 27-549): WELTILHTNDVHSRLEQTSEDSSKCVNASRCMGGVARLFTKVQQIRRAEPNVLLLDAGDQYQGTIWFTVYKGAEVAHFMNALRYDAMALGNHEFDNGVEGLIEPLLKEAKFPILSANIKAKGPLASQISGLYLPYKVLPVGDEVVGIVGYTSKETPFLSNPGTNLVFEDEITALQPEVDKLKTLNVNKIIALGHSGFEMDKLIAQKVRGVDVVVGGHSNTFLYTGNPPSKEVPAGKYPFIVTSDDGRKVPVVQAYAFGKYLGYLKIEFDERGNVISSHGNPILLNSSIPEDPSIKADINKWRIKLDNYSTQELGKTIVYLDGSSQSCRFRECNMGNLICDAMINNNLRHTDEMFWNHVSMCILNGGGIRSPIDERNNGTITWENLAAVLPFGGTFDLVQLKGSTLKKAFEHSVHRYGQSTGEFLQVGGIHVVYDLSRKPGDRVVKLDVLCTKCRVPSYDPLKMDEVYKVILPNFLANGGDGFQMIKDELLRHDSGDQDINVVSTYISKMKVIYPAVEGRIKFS
Format: biochemical

Row | SMILES | IC50 [nM]
1 | CN(C[C@H]1O[C@@H](n2cnc3c(NC4CCCC4)nc(Cl)nc32)[C@H](O)[C@@H]1O)C(=O)CP(=O)(OCOC(=O)OCC(C)(C)C)OCOC(=O)OCC(C)(C)C [AC] | > 1000
2 | COCCOC(=O)OCOP(=O)(CC(=O)N(C)C[C@H]1O[C@@H](n2cnc3c(NC4CCCC4)nc(Cl)nc32)[C@H](O)[C@@H]1O)OCOC(=O)OCCOC [AE] | > 1000
3 | CN(C[C@H]1O[C@@H](n2cnc3c(NC4CCCC4)nc(Cl)nc32)[C@H](O)[C@@H]1O)C(=O)CP(=O)(OCOC(=O)C(C)(C)C)OCOC(=O)C(C)(C)C [AG] | > 1000
4 | CC(C)OC(=O)OCOP(=O)(CC(=O)N(CC1CC1)C[C@H]1O[C@@H](n2cnc3c(NC4CCCC4)nc(Cl)nc32)[C@H](O)[C@@H]1O)OCOC(=O)OC(C)C [AJ] | > 1000
5 | CC(C)OC(=O)OCOP(=O)(CC(=O)N(C)C[C@H]1O[C@@H](n2cnc3c(N[C@H]4CCOC4)nc(Cl)nc32)[C@H](O)[C@@H]1O)OCOC(=O)OC(C)C [AM] | > 1000
6 | CC(C)OC(=O)OCOP(=O)(O)CC(=O)N(C)C[C@H]1O[C@@H](n2cnc3c(N[C@H]4CCOC4)nc(Cl)nc32)[C@H](O)[C@@H]1O [AN] | > 1000
7 | COCCOC(=O)OCOP(=O)(CC(=O)N(C)C[C@H]1O[C@@H](n2cnc3c(N[C@H]4CCOC4)nc(Cl)nc32)[C@H](O)[C@@H]1O)OCOC(=O)OCCOC [AO] | > 1000
8 | CCOC(=O)OCOP(=O)(CC(=O)N(C)C[C@H]1O[C@@H](n2cnc3c(N[C@H]4CCOC4)nc(Cl)nc32)[C@H](O)[C@@H]1O)OCOC(=O)OCC [AP] | > 1000
9 | CCOC(=O)OCOP(=O)(O)CC(=O)N(C)C[C@H]1O[C@@H](n2cnc3c(N[C@H]4CCOC4)nc(Cl)nc32)[C@H](O)[C@@H]1O [AQ] | > 1000
10 | CN(C[C@H]1O[C@@H](n2cnc3c(N[C@H]4CCOC4)nc(Cl)nc32)[C@H](O)[C@@H]1O)C(=O)CP(=O)(OCOC(=O)OCC(C)(C)C)OCOC(=O)OCC(C)(C)C [AR] | > 1000
11 | CN(C[C@H]1O[C@@H](n2cnc3c(N[C@H]4CCOC4)nc(Cl)nc32)[C@H](O)[C@@H]1O)C(=O)CP(=O)(O)OCOC(=O)OCC(C)(C)C [AS] | > 1000
12 | CC(C)OC(=O)[C@H](C)NP(=O)(CC(=O)N(C)C[C@H]1O[C@@H](n2cnc3c(NC4CCCC4)nc(Cl)nc32)[C@H](O)[C@@H]1O)N[C@@H](C)C(=O)OC(C)C [Example P] | > 1000
13 | CC(C)OC(=O)[C@H](C)NP(=O)(CC(=O)N(C)C[C@H]1O[C@@H](n2cnc3c(NC4CCCC4)nc(Cl)nc32)[C@H](O)[C@@H]1O)Oc1ccccc1 (stereo partly drawn) [M] | > 1000
14 | COC(=O)[C@H](C)NP(=O)(CC(=O)N(C)C[C@H]1O[C@@H](n2cnc3c(NC4CCCC4)nc(Cl)nc32)[C@H](O)[C@@H]1O)Oc1ccccc1 (stereo partly drawn) [N] | > 1000
15 | CC(C)OC(=O)[C@H](C)NP(=O)(CC(=O)N(C)C[C@H]1O[C@@H](n2cnc3c(NC4CCCC4)nc(Cl)nc32)[C@H](O)[C@@H]1OC(=O)C(C)C)Oc1ccccc1 (stereo partly drawn) [O] | > 1000
16 | CN(C[C@H]1O[C@@H](n2cnc3c(NC4CCCC4)nc(Cl)nc32)[C@H](O)[C@@H]1O)C(=O)CP1(=O)OCCC(c2cccc(Cl)c2)O1 (stereo partly drawn) [Q] | > 1000
17 | CN(C[C@H]1O[C@@H](n2cnc3c(NC4CCCC4)nc(Cl)nc32)[C@H](O)[C@@H]1O)C(=O)CP1(=O)Nc2ccccc2CO1 (stereo partly drawn) [R] | > 1000
18 | CN(C[C@H]1O[C@@H](n2cnc3c(NC4CCCC4)nc(Cl)nc32)[C@H](O)[C@@H]1O)C(=O)CP1(=O)OCc2ccccc2O1 (stereo partly drawn) [T] | > 1000
19 | CN(C[C@H]1O[C@@H](n2cnc3c(NC4CCCC4)nc(Cl)nc32)[C@H](O)[C@@H]1O)C(=O)CP(=O)(Oc1ccccc1)Oc1ccccc1 [U] | > 1000
20 | CN(C[C@H]1O[C@@H](n2cnc3c(NC4CCCC4)nc(Cl)nc32)[C@H](O)[C@@H]1O)C(=O)CP(=O)(O)Oc1ccccc1 [V] | > 1000
21 | CC(C)OC(=O)OCOP(=O)(CC(=O)N(C)C[C@H]1O[C@@H](n2cnc3c(NC4CCCC4)nc(Cl)nc32)[C@H](O)[C@@H]1O)OCOC(=O)OC(C)C [W] | > 1000
22 | CCOC(=O)OCOP(=O)(CC(=O)N(C)C[C@H]1O[C@@H](n2cnc3c(NC4CCCC4)nc(Cl)nc32)[C@H](O)[C@@H]1O)OCOC(=O)OCC [Y] | > 1000

Continued, values first:

Row | IC50 [nM] | SMILES
23 | > 1000 | COC(=O)OCOP(=O)(CC(=O)N(C)C[C@H]1O[C@@H](n2cnc3c(NC4CCCC4)nc(Cl)nc32)[C@H](O)[C@@H]1O)OCOC(=O)OC [AA]
24 | > 1000 | COC(=O)OCOP(=O)(O)CC(=O)N(C)C[C@H]1O[C@@H](n2cnc3c(NC4CCCC4)nc(Cl)nc32)[C@H](O)[C@@H]1O [AB]
25 | > 1000 | CN(C[C@H]1O[C@@H](n2cnc3c(NC4CCCC4)nc(Cl)nc32)[C@H](O)[C@@H]1O)C(=O)CP(=O)(O)OCOC(=O)OCC(C)(C)C [AD]
26 | > 1000 | COCCOC(=O)OCOP(=O)(O)CC(=O)N(C)C[C@H]1O[C@@H](n2cnc3c(NC4CCCC4)nc(Cl)nc32)[C@H](O)[C@@H]1O [AF]
27 | > 1000 | CN(C[C@H]1O[C@@H](n2cnc3c(NC4CCCC4)nc(Cl)nc32)[C@H](O)[C@@H]1O)C(=O)CP(=O)(O)OCOC(=O)C(C)(C)C [AH]
28 | < 100 | O=C(CP(=O)(O)O)N(CC1CC1)C[C@H]1O[C@@H](n2cnc3c(NC4CCCC4)nc(Cl)nc32)[C@H](O)[C@@H]1O [AI]
29 | > 1000 | CC(C)OC(=O)OCOP(=O)(O)CC(=O)N(CC1CC1)C[C@H]1O[C@@H](n2cnc3c(NC4CCCC4)nc(Cl)nc32)[C@H](O)[C@@H]1O [AK]
30 | 100 to 1000 | CN(C[C@H]1O[C@@H](n2cnc3c(N[C@H]4CCOC4)nc(Cl)nc32)[C@H](O)[C@@H]1O)C(=O)CP(=O)(O)O [AL]
31 | 100 to 1000 | O=C(CP(=O)(O)O)NC[C@H]1O[C@@H](n2cnc3c(NC4CCCC4)nc(Cl)nc32)[C@H](O)[C@@H]1O [A]
32 | 100 to 1000 | CC(C)N(C[C@H]1O[C@@H](n2cnc3c(NC4CCCC4)nc(Cl)nc32)[C@H](O)[C@@H]1O)C(=O)CP(=O)(O)O [B]
33 | < 100 | CCN(C[C@H]1O[C@@H](n2cnc3c(NC4CCCC4)nc(Cl)nc32)[C@H](O)[C@@H]1O)C(=O)CP(=O)(O)O [C]
34 | < 100 | O=C(CP(=O)(O)O)N(Cc1ccccc1)C[C@H]1O[C@@H](n2cnc3c(NC4CCCC4)nc(Cl)nc32)[C@H](O)[C@@H]1O [D]
35 | < 100 | O=C(O)CN(C[C@H]1O[C@@H](n2cnc3c(NC4CCCC4)nc(Cl)nc32)[C@H](O)[C@@H]1O)C(=O)CP(=O)(O)O [E]
36 | < 100 | O=C(CP(=O)(O)O)N(CCO)C[C@H]1O[C@@H](n2cnc3c(NC4CCCC4)nc(Cl)nc32)[C@H](O)[C@@H]1O [F]
37 | > 1000 | CN(C[C@H]1O[C@@H](n2cnc3c(NC4CCCC4)nc(Cl)nc32)[C@@H](F)[C@@H]1O)C(=O)CP(=O)(O)O [G]
38 | < 100 | CCN(C[C@H]1O[C@@H](n2cnc3c(N(C)C4CCCC4)nc(Cl)nc32)[C@H](O)[C@@H]1O)C(=O)CP(=O)(O)O [H]
39 | < 100 | CN(c1nc(Cl)nc2c1ncn2[C@@H]1O[C@H](CN(CC2CC2)C(=O)CP(=O)(O)O)[C@@H](O)[C@H]1O)C1CCCC1 [I]
40 | 100 to 1000 | CN(C[C@H]1O[C@@H](n2ncc3c(NC4CCCC4)nc(Cl)nc32)[C@H](O)[C@@H]1O)C(=O)CP(=O)(O)O [J]
41 | < 100 | O=C(CP(=O)(O)O)N(CC1CC1)C[C@H]1O[C@@H](n2ncc3c(NC4CCCC4)nc(Cl)nc32)[C@H](O)[C@@H]1O [K]
42 | < 100 | CN(C[C@H]1O[C@@H](n2cnc3c(NC4CCCC4)nc(Cl)nc32)[C@H](O)[C@@H]1O)C(=O)CP(=O)(O)O [L]
43 | > 1000 | Cc1cccc2c1NP(=O)(CC(=O)N(C)C[C@H]1O[C@@H](n3cnc4c(NC5CCCC5)nc(Cl)nc43)[C@H](O)[C@@H]1O)OC2 (stereo partly drawn) [S]
44 | > 1000 | CC(C)OC(=O)OCOP(=O)(O)CC(=O)N(C)C[C@H]1O[C@@H](n2cnc3c(NC4CCCC4)nc(Cl)nc32)[C@H](O)[C@@H]1O [X]
45 | > 1000 | CCOC(=O)OCOP(=O)(O)CC(=O)N(C)C[C@H]1O[C@@H](n2cnc3c(NC4CCCC4)nc(Cl)nc32)[C@H](O)[C@@H]1O [Z]
